Measured values reported in article PMC9649612, “Molecular docking and biochemical validation of (-)-syringaresinol-4-O-β-D-apiofuranosyl-(1→2)-β-D-glucopyranoside binding to an allosteric site in monoamine transporters” (Frontiers in Pharmacology, 2022).

Tests used:
[1] = molecular target: T1, hNET A477G (S2 site mutant) (Homo sapiens, UniProt P23975, A477G); assay: APP+ transport in HeLa cells expressing hNET mutant A477G; format: cell-based; conditions: intact HeLa cells, read-out: SAG IC50
T1 construct: expressed in transfected cells; host or cells: HeLa
T1 sequence (P23975 whole entry A477G): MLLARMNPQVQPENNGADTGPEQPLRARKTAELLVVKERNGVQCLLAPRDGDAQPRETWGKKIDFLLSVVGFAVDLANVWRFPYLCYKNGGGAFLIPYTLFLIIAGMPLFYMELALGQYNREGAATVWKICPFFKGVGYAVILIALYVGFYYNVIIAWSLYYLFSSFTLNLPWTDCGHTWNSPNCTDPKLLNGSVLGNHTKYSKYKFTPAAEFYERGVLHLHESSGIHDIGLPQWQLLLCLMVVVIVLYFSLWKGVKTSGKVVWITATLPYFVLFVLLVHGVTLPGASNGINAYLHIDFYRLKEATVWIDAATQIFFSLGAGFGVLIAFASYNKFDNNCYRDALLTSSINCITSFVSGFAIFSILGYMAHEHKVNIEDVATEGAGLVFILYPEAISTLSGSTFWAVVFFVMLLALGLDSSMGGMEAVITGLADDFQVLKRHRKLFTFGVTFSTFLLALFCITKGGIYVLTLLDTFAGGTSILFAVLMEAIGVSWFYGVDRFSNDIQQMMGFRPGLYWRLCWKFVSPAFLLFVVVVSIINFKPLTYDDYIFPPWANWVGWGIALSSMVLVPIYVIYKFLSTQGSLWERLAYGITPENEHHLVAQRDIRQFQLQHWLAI
Procedure: (§1) The mutants used for this study were constructed in the WT background carried by the expression plasmids for hSERT, hDAT, or hNET under the control of CMV promotor in pcDNA3.1 vector, respectively. All mutants were generated using the Mut Express II Fast Mutagenesis Kit (Vazyme) and confirmed by full-length DNA sequencing.
(§2) HeLa cells were cultured in Dulbecco’s Modified Eagle’s Medium supplemented with 10% fetal bovine serum, 100 units/ml penicillin, and 100 μg/ml streptomycin at 37°C in a humidified 5% CO2 incubator. Cells were plated in a 6-well culture plate and grown overnight. Cells at ∼70% confluence were transfected with hSERT, hDAT, or hNET cDNA in pcDNA3.1 by lipofectamine 2000. […] After grown for additional 12–16 h, the cells were assayed for APP^+ or ASP^+ fluorescence image acquisition.
(§3) The cells expressing WT or mutants of hSERT, hDAT, or hNET were wet mounted on polylysine coated glass slides in 12-well plates and applied for the indicated treatments. […] The extent of APP^+ accumulated in the cells was determined by confocal imaging analysis. ASP^+ binding to SERT in the cell membrane was measured with digitonin-permeabilized cells ([Li M. et al., 2022a]). […] After removing excess ASP^+ by rapid washing three times, ASP^+ binding was determined by confocal imaging analysis.
(§4) Images were analyzed using Zen Blue software. […]

[2] = molecular target: T2, hSERT F556A (S2 site mutant) (Homo sapiens, UniProt P31645, F556A); assay: APP+ transport in HeLa cells expressing hSERT mutant F556A; format: cell-based; conditions: 2 μM APP+ 5 min, intact HeLa cells, read-out: SAG IC50 for transport
T2 construct: expressed in transfected cells; host or cells: HeLa (ATCC CCL-2), transient, pcDNA3.1
Procedure: as §1, §2, §3, §4

[3] = molecular target: T3, hSERT P560G (S2 site mutant) (Homo sapiens, UniProt P31645, P560G); assay: APP+ transport in HeLa cells expressing hSERT mutant P560G; format: cell-based; conditions: 2 μM APP+ 5 min, intact HeLa cells, read-out: SAG IC50 for transport
T3 construct: expressed in transfected cells; host or cells: HeLa (ATCC CCL-2), transient, pcDNA3.1
Procedure: as §1, §2, §3, §4

[4] = molecular target: T4, hSERT G498T (S2 site mutant) (Homo sapiens, UniProt P31645, G498T); assay: APP+ transport in HeLa cells expressing hSERT mutant G498T; format: cell-based; conditions: 2 μM APP+ 5 min, intact HeLa cells, read-out: SAG IC50 for transport
T4 construct: expressed in transfected cells; host or cells: HeLa (ATCC CCL-2), transient, pcDNA3.1
Procedure: as §1, §2, §3, §4

[5] = molecular target: T5, hDAT F320A (S2 site mutant) (Homo sapiens, UniProt Q01959, F320A); assay: APP+ transport in HeLa cells expressing hDAT mutant F320A; format: cell-based
T5 construct: expressed in transfected cells; host or cells: HeLa
T5 sequence (Q01959 whole entry F320A): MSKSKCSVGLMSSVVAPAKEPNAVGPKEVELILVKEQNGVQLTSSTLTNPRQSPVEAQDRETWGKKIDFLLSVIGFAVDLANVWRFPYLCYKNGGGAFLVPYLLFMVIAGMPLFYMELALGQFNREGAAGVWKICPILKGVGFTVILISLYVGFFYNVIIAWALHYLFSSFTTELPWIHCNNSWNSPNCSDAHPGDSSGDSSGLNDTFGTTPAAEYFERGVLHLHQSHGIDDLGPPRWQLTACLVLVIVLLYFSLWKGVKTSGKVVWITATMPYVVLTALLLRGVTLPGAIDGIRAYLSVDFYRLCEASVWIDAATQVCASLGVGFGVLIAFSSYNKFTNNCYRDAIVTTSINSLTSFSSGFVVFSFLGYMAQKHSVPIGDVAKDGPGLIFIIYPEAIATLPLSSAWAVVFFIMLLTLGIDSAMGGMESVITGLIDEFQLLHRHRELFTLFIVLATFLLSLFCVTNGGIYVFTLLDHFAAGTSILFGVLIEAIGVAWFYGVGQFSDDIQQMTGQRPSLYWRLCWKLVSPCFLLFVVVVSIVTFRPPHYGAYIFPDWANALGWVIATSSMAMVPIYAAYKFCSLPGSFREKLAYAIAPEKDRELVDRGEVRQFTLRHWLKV
Procedure: as §1, §2, §3, §4

[6] = molecular target: T6, hSERT T583A (S2 site mutant) (Homo sapiens, UniProt P31645, T583A); assay: APP+ transport in HeLa cells expressing hSERT mutant T583A; format: cell-based; conditions: 2 μM APP+ 5 min, intact HeLa cells, read-out: SAG IC50 for transport
T6 construct: expressed in transfected cells; host or cells: HeLa (ATCC CCL-2), transient, pcDNA3.1
Procedure: as §1, §2, §3, §4

[7] = molecular target: T7, hNET T474Q (S2 site mutant) (Homo sapiens, UniProt P23975, T474Q); assay: APP+ transport in HeLa cells expressing hNET mutant T474Q; format: cell-based
T7 construct: expressed in transfected cells; host or cells: HeLa
T7 sequence (P23975 whole entry T474Q): as the sequence (P23975 whole entry A477G) above, with T474Q, G477A counted along it
Procedure: as §1
(§5) HeLa cells were cultured in Dulbecco’s Modified Eagle’s Medium supplemented with 10% fetal bovine serum, 100 units/ml penicillin, and 100 μg/ml streptomycin at 37°C in a humidified 5% CO2 incubator. Cells were plated in a 6-well culture plate and grown overnight. Cells at ∼70% confluence were transfected with hSERT, hDAT, or hNET cDNA in pcDNA3.1 by lipofectamine 2000. Transfected cells were incubated for 24 h at 37°C with 5% CO2 and then transferred into a 12-well plate placed with polylysine coated slides. After grown for additional 12–16 h, the cells were assayed for APP^+ or ASP^+ fluorescence image acquisition.
The cells expressing WT or mutants of hSERT, hDAT, or hNET were wet mounted on polylysine coated glass slides in 12-well plates and applied for the indicated treatments. In brief, the cells were washed twice with 500 μl KRH buffer containing 20 mM HEPES, pH 7.4, 120 mM NaCl, 1.3 mM KCl, 2.2 mM CaCl2, 1.2 mM MgSO4, and 0.1% (w/v) glucose. […] Excess APP^+ was then removed by rapid washing three times with 500 μl KRH buffer. The extent of APP^+ accumulated in the cells was determined by confocal imaging analysis. ASP^+ binding to SERT in the cell membrane was measured with digitonin-permeabilized cells ([Li M. et al., 2022a]). […] After removing excess ASP^+ by rapid washing three times, ASP^+ binding was determined by confocal imaging analysis.
(§6) Images were analyzed using Zen Blue software.
Nonlinear regression fits of experimental and calculated data were performed with Origin (Origin Lab). The statistical analysis given was from multiple experiments. Data with error bars in the figures represent the mean ± SD for at least 10 measurements per condition in one experiment or the mean ± SEM from at least three experiments as indicated, respectively. […]

[8] = molecular target: T8, hDAT Q317A (S2 site mutant) (Homo sapiens, UniProt Q01959, Q317A); assay: APP+ transport in HeLa cells expressing hDAT mutant Q317A; format: cell-based; conditions: intact HeLa cells, read-out: SAG IC50
T8 construct: expressed in transfected cells; host or cells: HeLa
T8 sequence (Q01959 whole entry Q317A): as the sequence (Q01959 whole entry F320A) above, with Q317A, A320F counted along it
Procedure: as §1, §2, §3, §4

[9] = molecular target: T9, hSERT T497A (S2 site mutant) (Homo sapiens, UniProt P31645, T497A); assay: ASP+ binding in digitonin-permeabilized HeLa cells expressing hSERT T497A; conditions: 10 μM ASP+, read-out: SAG IC50 for binding
T9 construct: expressed in transfected cells; host or cells: HeLa (ATCC CCL-2), transient, pcDNA3.1
Procedure: as §1, §2, §3, §4

WT-hSERT = molecular target: T10, WT-hSERT (Homo sapiens, UniProt P31645); assay: ASP+ binding in digitonin-permeabilized HeLa cells expressing WT-hSERT; conditions: 10 μM ASP+ 5 min, 25 μg/ml digitonin-permeabilized HeLa cells, read-out: SAG IC50 for binding
T10 construct: expressed in transfected cells; host or cells: HeLa (ATCC CCL-2), transient, pcDNA3.1
Procedure: as §5, §3, §6
Nonlinear regression fits of experimental and calculated data were performed with Origin (Origin Lab). […]

[10] = molecular target: T11, hSERT I172F (S1 site mutant) (Homo sapiens, UniProt P31645, I172F); assay: APP+ transport in HeLa cells expressing hSERT mutant I172F; format: cell-based; conditions: 2 μM APP+ 5 min, intact HeLa cells, read-out: SAG IC50 for transport
T11 construct: expressed in transfected cells; host or cells: HeLa
Procedure: as §1, §2, §3, §4

[11] = molecular target: T12, hDAT W562A (S2 site mutant) (Homo sapiens, UniProt Q01959, W562A); assay: APP+ transport in HeLa cells expressing hDAT mutant W562A; format: cell-based
T12 construct: expressed in transfected cells; host or cells: HeLa
T12 sequence (Q01959 whole entry W562A): as the sequence (Q01959 whole entry F320A) above, with A320F, W562A counted along it
Procedure: as §1, §2, §3, §4

[12] = molecular target: T13, hNET W559A (S2 site mutant) (Homo sapiens, UniProt P23975, W559A); assay: APP+ transport in HeLa cells expressing hNET mutant W559A; format: cell-based; conditions: intact HeLa cells, read-out: SAG IC50
T13 construct: expressed in transfected cells; host or cells: HeLa
T13 sequence (P23975 whole entry W559A): as the sequence (P23975 whole entry A477G) above, with G477A, W559A counted along it
Procedure: as §1, §2, §3, §4

[13] = molecular target: T14, hSERT P561G (S2 site mutant) (Homo sapiens, UniProt P31645, P561G); assay: ASP+ binding in digitonin-permeabilized HeLa cells expressing hSERT P561G; conditions: 10 μM ASP+, read-out: SAG IC50 for binding
T14 construct: expressed in transfected cells; host or cells: HeLa (ATCC CCL-2), transient, pcDNA3.1
Procedure: as §1, §2, §3, §4

[14] = molecular target: T15, hSERT Y579A (S2 site mutant) (Homo sapiens, UniProt P31645, Y579A); assay: APP+ transport in HeLa cells expressing hSERT mutant Y579A; format: cell-based; conditions: 2 μM APP+ 5 min, intact HeLa cells, read-out: SAG IC50 for transport
T15 construct: expressed in transfected cells; host or cells: HeLa (ATCC CCL-2), transient, pcDNA3.1
Procedure: as §1, §2, §3, §4

[15] = molecular target: T16, hDAT D476N (S2 site mutant) (Homo sapiens, UniProt Q01959, D476N); assay: APP+ transport in HeLa cells expressing hDAT mutant D476N; format: cell-based; conditions: intact HeLa cells, read-out: SAG IC50
T16 construct: expressed in transfected cells; host or cells: HeLa
T16 sequence (Q01959 whole entry D476N): as the sequence (Q01959 whole entry F320A) above, with A320F, D476N counted along it
Procedure: as §1, §2, §3, §4

[16] = molecular target: T17, hSERT P499G (S2 site mutant) (Homo sapiens, UniProt P31645, P499G); assay: APP+ transport in HeLa cells expressing hSERT mutant P499G; format: cell-based; conditions: 2 μM APP+ 5 min, intact HeLa cells, read-out: SAG IC50 for transport
T17 construct: expressed in transfected cells; host or cells: HeLa (ATCC CCL-2), transient, pcDNA3.1
Procedure: as §1, §2, §3, §4

[17] = molecular target: T18, hSERT S438T (S1 site mutant) (Homo sapiens, UniProt P31645, S438T); assay: APP+ transport in HeLa cells expressing hSERT mutant S438T; format: cell-based; conditions: 2 μM APP+ 5 min, intact HeLa cells, read-out: SAG IC50 for transport
T18 construct: expressed in transfected cells; host or cells: HeLa
Procedure: as §1, §2, §3, §4

[18] = molecular target: T19, hSERT E494Q (S2 site mutant) (Homo sapiens, UniProt P31645, E494Q); assay: ASP+ binding in digitonin-permeabilized HeLa cells expressing hSERT E494Q; conditions: 10 μM ASP+, read-out: SAG IC50 for binding
T19 construct: expressed in transfected cells; host or cells: HeLa (ATCC CCL-2), transient, pcDNA3.1
Procedure: as §1, §2, §3, §4

[19] = molecular target: T20, hNET F317A (S2 site mutant) (Homo sapiens, UniProt P23975, F317A); assay: APP+ transport in HeLa cells expressing hNET mutant F317A; format: cell-based
T20 construct: expressed in transfected cells; host or cells: HeLa
T20 sequence (P23975 whole entry F317A): as the sequence (P23975 whole entry A477G) above, with F317A, G477A counted along it
Procedure: as §1, §2, §3, §4

Which IC50 [1] does the source give for “(-)-Syringaresinol-4-O-β-D-apiofuranosyl-(1→2)-β-D-glucopyranoside [SAG]” here?
The IC50 was > 1000 µM.

What about the IC50 [2] of the same substance?
Its IC50 is 41 ± 6.5 µM.

What about the IC50 [3] of the same substance?
Its IC50 is 243 ± 10 µM.

And the IC50 [4]?
The IC50 was 69.2 ± 3.3 µM.

What about the “Decrease in SAG IC50 compared with WT” value ([5]; hDAT F320A vs WT-hDAT) of the same substance?
The value was ~50%.

And the IC50 ([5]; hDAT F320A, intact HeLa cells, read-out: SAG IC50)?
The IC50 was 16.8 ± 0.7 µM.

What about the IC50 [6] of the same substance?
Its IC50 is > 1000 µM.

And the “Change in SAG inhibition potency compared to WT” value ([7]; hNET T474Q vs WT-hNET)?
The value was “little change”.

What about the “Decrease in SAG inhibition potency compared with WT” value ([7]; hNET T474Q vs WT-hNET) of the same substance?
The value was “less than 3 folds”.

And the IC50 ([7]; hNET T474Q, intact HeLa cells, read-out: SAG IC50)?
The IC50 was 49.3 ± 7.9 µM.

And the IC50 [8]?
The IC50 was 51.3 ± 3.1 µM.

What about the IC50 [9] of the same substance?
Its IC50 is 152 ± 12 µM.

What about the IC50 (WT-hSERT) of the same substance?
Its IC50 is 7.88 ± 0.35 µM.

And the IC50 [10]?
The IC50 was 12.5 ± 0.97 µM.

And the “Increase in SAG IC50 compared with WT” value ([11]; hDAT W562A vs WT-hDAT)?
The value was “more than 30 fold”.

And the IC50 ([11]; hDAT W562A, intact HeLa cells, read-out: SAG IC50)?
Its IC50 is > 1000 µM.

What about the IC50 [12] of the same substance?
Its IC50 is > 1000 µM.

And the IC50 [13]?
The IC50 was > 1000 µM.

And the IC50 [14]?
Its IC50 is 127 ± 3 µM.

And the IC50 [15]?
Its IC50 is 93.8 ± 3.9 µM.

And the IC50 [16]?
The IC50 was 88.1 ± 2.8 µM.

What about the IC50 [17] of the same substance?
The IC50 was 10.3 ± 0.49 µM.

And the IC50 [18]?
Its IC50 is 192 ± 16 µM.

What about the “Change in SAG inhibition potency compared to WT” value ([19]; hNET F317A vs WT-hNET) of the same substance?
The value was “little change”.

What about the IC50 ([19]; hNET F317A, intact HeLa cells, read-out: SAG IC50) of the same substance?
Its IC50 is 36.7 ± 7.6 µM.
